The nature of this series: Storage stability and micronization of crystalline material from the cubic dosing curve crystallization. Format: physicochemical. The note with it: crystalline material obtained from ethanol/water by cubic dosing curve crystallization.

Each structure is given as a SMILES string.

In the case of `CC(C)(O)CCn1cc2cc(NC(=O)c3cccc(C(F)(F)F)n3)c(C(C)(C)O)cc2n1` [compound (I), N-[2-(3-Hydroxy-3-methylbutyl)-6-(2-hydroxypropan-2-yl)-2H-indazol-5-yl]-6-(trifluoromethyl)pyridine-2-carboxamide], the stability during storage entry was “good stability”.

Values taken from patent publication US10501437B2 (Bayer Pharma Aktiengesellschaft, priority 2016, dated 2019).
